Target: T1, human Edg-1 receptor (Homo sapiens, UniProt P21453)
T1 construct: FLAG (N); expressed in transfected cells; membrane preparation
Assay: GTP-γ-S assay using human Edg-1 receptors (SPA, CHO Flp-In cell membrane preparation)
Format: biochemical
Conditions: test compound at 10 μM, high control 10 μM S1P regarded as 100% activation, background-corrected, triplicate; for activation at 10 µM: read-out: % Activation (Edg-1 receptor activation in percent of the activation by 10 μM S1P)
Description: Determination of the Pharmacological Activity A) GTP-γ-S Assay Using Human Edg-1 Receptors
In order to determine the Edg-1 receptor activation by the compounds of the invention, a GTP-γ-S (guanosine 5′-[γ-thio]triphosphate) assay for G-protein coupled receptor binding based on the scintillation proximity assay principle was used, employing a cell membrane preparation from a CHO Flp-In cell line which constitutively overexpresses the human Edg-1 receptor.
The Flp-In™ expression system (Invitrogen, cat. no. K6010-01) allows the generation of stable mammalian cell lines into which the gene of interest has been integrated through homologous recombination at a specific genomic location called Flp Recombination Target (FRT) site by means of a Flp recombinase encoded by the pOG44 expression plasmid. The integration of the pcDNA5/FRT expression construct into the Flp-In host cell line genome results in the transcription of the gene of interest. The stably transfected cells become hygromycin-resistant.
One day prior to transfection, 200 000 Flp-In-CHO cells were seeded in Ham F-12 medium (Invitrogen, cat. no. 31765) supplemented with 10% fetal calf serum (FCS; Perbio Science, cat. no. SH30068.03) in a 6-well plate and incubated at 37° C./5% CO2 overnight. Using the FuGENE® 6 transfection reagent (Roche, cat. no. 11988387001), cells were cotransfected with the Flp recombinase expression plasmid pOG44 and a modified plasmid additionally containing the edg-1 gene (accession no. NM_001400) termed as pcDNA5-FRT-TO_nFLAG_DEST-EDG-1 with a 9:1 ratio. To obtain the modified pcDNA5-FRT-TO_nFLAG_DEST plasmid, the Invitrogen plasmid pcDNA5/FRT/TO (Invitrogen, cat. no. V6520-20) was adapted to the Gateway® (Invitrogen) cloning system by inserting a Gateway cassette containing attR recombination sites flanking a ccdB gene and a chloramphenicol-resistance gene (Gateway conversion system, Invitrogen, cat. no. 11828-029). In addition a FLAG tag epitope was added before the 5′ att recombination site to allow recombinant expression of N-terminally FLAG-tagged proteins.
For the transfection of one well, 1.08 μg of pOG44 and 0.12 μg of pcDNA5-FRT-TO_nFLAG_DEST-EDG-1 were mixed with 100 μl of serum-free Ham F-12 medium containing 6 μl of FuGENE® 6 transfection reagent. After 20 min of incubation, the transfection reagent/DNA complex was distributed dropwise on the cells. The cells were incubated for 24 h at 37° C. Then the cells from 3 wells each were transferred to a T75 flask (Greiner Cellstar®, cat. no. 658175) containing Ham F-12 medium supplemented with 10% of FCS but without antibiotic and were incubated another 24 h. 48 h after transfection, the medium was replaced by selection medium (Ham F-12 supplemented with 10% of FCS and 300 μg/ml of hygromycin B (Invitrogen, cat. no. 10687-010)). The medium was exchanged every 2 to 3 days until a resistant population of cells had grown. […] After 2 weeks of selection, the cells were transferred into T175 flasks (Greiner Cellstar®, cat. no. 660175) and cultivated for batch production. Cells were harvested from the culture flasks by short treatment (2 to 5 min) with Accutase (PAA, cat. no. L11-007), resuspended in selection medium (see above) and centrifuged at 200×g for 5 min. Cells were resuspended in a mixture of 90% of FCS and 10% of dimethylsulfoxide and stored frozen in liquid nitrogen.
A membrane preparation was obtained by standard methods from the afore-described CHO Flp-In cell line constitutively overexpressing the human Edg-1 receptor. Briefly, the cryopreserved cells were taken in culture and grown until confluency in T175 cell culture flasks (Becton Dickinson, cat. no. 35 5001). […]

T1 sequence (P21453 whole entry): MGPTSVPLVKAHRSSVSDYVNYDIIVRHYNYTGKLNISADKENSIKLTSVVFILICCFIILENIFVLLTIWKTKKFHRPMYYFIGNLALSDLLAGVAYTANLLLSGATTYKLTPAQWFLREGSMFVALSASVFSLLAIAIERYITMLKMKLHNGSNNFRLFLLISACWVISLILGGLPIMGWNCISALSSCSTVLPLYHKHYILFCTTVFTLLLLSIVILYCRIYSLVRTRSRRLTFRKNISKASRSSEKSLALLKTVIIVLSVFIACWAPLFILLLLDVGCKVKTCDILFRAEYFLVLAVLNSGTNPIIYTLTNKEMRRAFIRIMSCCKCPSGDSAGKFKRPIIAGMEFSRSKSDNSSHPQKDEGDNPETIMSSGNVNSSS

## CCCOc1nc(Oc2ccccc2F)nc2oc(-c3cccc(C)c3)nc12 [Example 103, 5-(2-fluoro-phenoxy)-7-propoxy-2-(3-methyl-phenyl)-oxazolo[5,4-d]pyrimidine]
  activation at 10 µM: 109%

## CCCOc1nc(Sc2nc(C)cs2)nc2oc(-c3cc(F)ccc3Cl)nc12 [Example 58, 2-(2-chloro-5-fluoro-phenyl)-5-(4-methyl-thiazol-2-ylsulfanyl)-7-propoxy-oxazolo[5,4-d]pyrimidine]
  activation at 10 µM: 102%

## CCCOc1nc(Oc2c(C)cc(C)cc2C)nc2oc(-c3cccc(C)c3)nc12 [Example 142, 7-propoxy-2-(3-methyl-phenyl)-5-(2,4,6-trimethyl-phenoxy)-oxazolo[5,4-d]pyrimidine]
  activation at 10 µM: 50%

## CCCOc1nc(Sc2nc(C)cs2)nc2oc(-c3cccc(C)c3)nc12 [Example 55, 5-(4-methyl-thiazol-2-ylsulfanyl)-7-propoxy-2-(3-methyl-phenyl)-oxazolo[5,4-d]pyrimidine]
  activation at 10 µM: 81%

## CCCOc1nc(Oc2c(C)cccc2Cl)nc2oc(-c3cccc(C)c3)nc12 [Example 91, 5-(2-chloro-6-methyl-phenoxy)-7-propoxy-2-(3-methyl-phenyl)-oxazolo[5,4-d]pyrimidine]
  activation at 10 µM: 105%

## CCOc1nc(Oc2ccccc2F)nc2oc(-c3cc(F)ccc3Cl)nc12 [Example 30, 2-(2-chloro-5-fluoro-phenyl)-7-ethoxy-5-(2-fluoro-phenoxy)-oxazolo[5,4-d]pyrimidine]
  activation at 10 µM: 134%

## CCCOc1nc(Oc2ccc(=O)n(C)n2)nc2oc(-c3cccc(C)c3)nc12 [Example 56, 2-methyl-6-(7-propoxy-2-(3-methyl-phenyl)-oxazolo[5,4-d]pyrimidin-5-yloxy)-2H-pyridazin-3-one]
  activation at 10 µM: 97%

## Fc1ccc(Cl)c(-c2nc3c(OCC4CC4)nc(Oc4ccccc4F)nc3o2)c1 [Example 104, 2-(2-chloro-5-fluoro-phenyl)-7-cyclopropylmethoxy-5-(2-fluoro-phenoxy)-oxazolo[5,4-d]pyrimidine]
  activation at 10 µM: 117%

## CCCOc1nc(Oc2cc(C)ccc2Cl)nc2oc(-c3cccc(C)c3)nc12 [Example 137, 5-(2-chloro-5-methyl-phenoxy)-7-propoxy-2-(3-methyl-phenyl)-oxazolo[5,4-d]pyrimidine]
  activation at 10 µM: 89%

## CCCOc1nc(Oc2ccc(OC)cc2F)nc2oc(-c3cccc(C)c3)nc12 [Example 75, 5-(2-fluoro-4-methoxy-phenoxy)-7-propoxy-2-(3-methyl-phenyl)-oxazolo[5,4-d]pyrimidine]
  activation at 10 µM: 72%

## CCCOc1nc(Oc2ccccc2SC)nc2oc(-c3cccc(C)c3)nc12 [Example 139, 5-(2-methylsulfanyl-phenoxy)-7-propoxy-2-(3-methyl-phenyl)-oxazolo[5,4-d]pyrimidine]
  activation at 10 µM: 120%

## CCCOc1nc(Oc2ccc(C)c(Cl)c2)nc2oc(-c3cccc(C)c3)nc12 [Example 89, 5-(3-chloro-4-methyl-phenoxy)-7-propoxy-2-(3-methyl-phenyl)-oxazolo[5,4-d]pyrimidine]
  activation at 10 µM: 96%

## CCCOc1nc(NC2CCC(C)CC2)nc2oc(-c3cc(F)ccc3Cl)nc12 (centres unmarked) [Example 148, [2-(2-chloro-5-fluoro-phenyl)-7-propoxy-oxazolo[5,4-d]pyrimidin-5-yl]-(4-methyl-cyclohexyl)-amine]
  % Activation (Edg-1 receptor activation in percent of the activation by 10 μM S1P): 58%

## CCCOc1nc(Oc2cc(F)ccc2Cl)nc2oc(-c3cccc(C)c3)nc12 [Example 101, 5-(2-chloro-5-fluoro-phenoxy)-7-propoxy-2-(3-methyl-phenyl)-oxazolo[5,4-d]pyrimidine]
  activation at 10 µM: 104%

## CCCOc1nc(OCC2COC(C)(C)O2)nc2oc(-c3ccc(Cl)c(Cl)c3)nc12 (centres unmarked) [Example 45, 2-(3,4-dichloro-phenyl)-5-(2,2-dimethyl-[1,3]dioxolan-4-ylmethoxy)-7-propoxy-oxazolo[5,4-d]pyrimidine]
  activation at 10 µM: 74%

## O=S1(=O)CCC(Sc2nc(OCC3CC3)c3nc(-c4cc(F)ccc4Cl)oc3n2)C1 (centres unmarked) [Example 13, 2-(2-chloro-5-fluoro-phenyl)-7-cyclopropylmethoxy-5-(1,1-dioxo-tetrahydro-1lambda6-thiophen-3-ylsulfanyl)-oxazolo[5,4-d]pyrimidine]
  activation at 10 µM: 104%

## CCCOc1nc(Oc2ccccc2F)nc2oc(-c3cc(C)c(OC)c(C)c3)nc12 [Example 5, 5-(2-Fluoro-phenoxy)-2-(4-methoxy-3,5-dimethyl-phenyl)-7-propoxy-oxazolo[5,4-d]pyrimidine]
  activation at 10 µM: 111%

## CCCOc1nc(N[C@H]2CCC[C@H](C)C2)nc2oc(-c3cc(F)ccc3Cl)nc12 [Example 147, [2-(2-chloro-5-fluoro-phenyl)-7-propoxy-oxazolo[5,4-d]pyrimidin-5-yl]-((1S,3S)-3-methyl-cyclohexyl)-amine]
  activation at 10 µM: 63%

## 5-(2-fluoro-phenoxy)-2-(1-oxy-pyridin-3-yl)-7-propoxy-oxazolo[5,4-d]pyrimidine [Example 109]
  % Activation (Edg-1 receptor activation in percent of the activation by 10 μM S1P): 108%

## CCOc1nc(Oc2cccc(S(N)(=O)=O)c2)nc2oc(-c3cc(F)ccc3Cl)nc12 [Example 21, 3-[2-(2-chloro-5-fluoro-phenyl)-7-ethoxy-oxazolo[5,4-d]pyrimidin-5-yloxy]-benzenesulfonamide]
  activation at 10 µM: 81%

## CCCOc1nc(Oc2cc(F)ccc2C)nc2oc(-c3cc(F)ccc3Cl)nc12 [Example 79, 2-(2-chloro-5-fluoro-phenyl)-5-(5-fluoro-2-methyl-phenoxy)-7-propoxy-oxazolo[5,4-d]pyrimidine]
  activation at 10 µM: 64%

## CCCOc1nc(Oc2cccc(N(C)C)c2)nc2oc(-c3cccc(C)c3)nc12 [Example 131, dimethyl-[3-(7-propoxy-2-(3-methyl-phenyl)-oxazolo[5,4-d]pyrimidin-5-yloxy)-phenyl]-amine]
  activation at 10 µM: 51%

## CCCOc1nc(Oc2cncc(F)c2)nc2oc(-c3ccc(Cl)c(Cl)c3)nc12 [Example 160, 2-(3,4-dichloro-phenyl)-5-(5-fluoro-pyridin-3-yloxy)-7-propoxy-oxazolo[5,4-d]pyrimidine]
  activation at 10 µM: 75%

## CCCOc1nc(Oc2ccccc2F)nc2oc(-c3cccc(F)c3)nc12 [Example 31, 5-(2-fluoro-phenoxy)-2-(3-fluoro-phenyl)-7-propoxy-oxazolo[5,4-d]pyrimidine]
  activation at 10 µM: 80%

## CCCOc1nc(Oc2ccccc2F)nc2oc(-c3cccc(OC)c3)nc12 [Example 40, 5-(2-fluoro-phenoxy)-2-(3-methoxy-phenyl)-7-propoxy-oxazolo[5,4-d]pyrimidine]
  activation at 10 µM: 120%

## CC1(C)OCC(COc2nc(OCC3CC3)c3nc(-c4cccc(F)c4)oc3n2)O1 (centres unmarked) [Example 35]
  % Activation (Edg-1 receptor activation in percent of the activation by 10 μM S1P): 72%

## CCCOc1nc(Oc2ccccc2C(C)(C)C)nc2oc(-c3cccc(C)c3)nc12 [Example 96, 5-(2-tert-butyl-phenoxy)-7-propoxy-2-(3-methyl-phenyl)-oxazolo[5,4-d]pyrimidine]
  activation at 10 µM: 67%

## CCCOc1nc(OC2CCOCC2)nc2oc(-c3cc(F)ccc3Cl)nc12 [Example 117, 2-(2-chloro-5-fluoro-phenyl)-7-propoxy-5-(tetrahydro-pyran-4-yloxy)-oxazolo[5,4-d]pyrimidine]
  activation at 10 µM: 63%

## CCCOc1nc(Sc2cc(F)ccc2C)nc2oc(-c3cc(F)ccc3Cl)nc12 [Example 153, 2-(2-chloro-5-fluoro-phenyl)-5-(5-fluoro-2-methyl-phenylsulfanyl)-7-propoxy-oxazolo[5,4-d]pyrimidine]
  activation at 10 µM: 108%

Source: patent publication US8785439B2, “2,5,7-substituted oxazolopyrimidine derivatives” (Sanofi, priority 2010, dated 2014)
